The text below walks through data of the supplement of paper PMC11061612.

The test system of experiment [1] is EB-3 (Burkitt's Lymphoma). In words: Bliss excess, mean over the matrix (fraction); higher = more synergy. In a few lines: (§1)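 Bliss excess equals the observed combination effect minus the expected value EA + EB − EA·EB, where EA and EB are the effects of each agent alone. Combination Emax is the second-highest inhibition within the matrix. Inhibition was scaled from CellTiter-Glo 2.0 luminescence, with 0 set by vehicle wells and 1 by blank wells, after 72 hours of two-drug dosing of cells plated in 1536-well plates.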

Experiment [2] deals with OCI-AML5 (Acute Myeloid Leukemia). Described as above. In a few lines: as §1
The subject of experiment [3] is AsPC-1 (Pancreatic Carcinoma). In words: combination Emax (second highest fraction inhibited in the dose matrix, 72 h); higher = more inhibition; extreme values may be limits of the assay. In a few lines:
as §1

Experiment [4] concerns Becker (Low Grade Glioma). The description is as above. Summed up: as §1
For experiment [5], the system named is CML-T1 (Chronic Myelogenous Leukemia). Described as above. In a few lines: as §1
Another experiment relates to HuO-3N1 (Osteosarcoma). Described as above. Summed up:
as §1

For experiment [6], the system named is KYSE-70 (Esophageal Squamous Cell Carcinoma). Described as above. Summed up:
as §1

Experiment [7] has as its system LAMA-84 (Chronic Myelogenous Leukemia). The experiment is described as above. Summed up:
as §1

Experiment [8] concerns NCI-H1155 (Non-Small Cell Lung Carcinoma). The description is as above. Summed up:
as §1

Experiment [9] relates to OV-90 (Ovarian Carcinoma). The experiment is described as above. In a few lines:
as §1

Experiment [10] deals with OVTOKO (Ovarian Carcinoma). Described as above. Summed up: as §1
Experiment [11] has as its system PANC-02-03 (Pancreatic Carcinoma). The experiment is described as above. Summed up: as §1
Experiment [12] deals with PC-14 (Lung Adenocarcinoma). The experiment is described as above. Summed up:
as §1

In experiment [13] the test system is RL95-2 (Endometrial Carcinoma). The experiment is described as above. In a few lines:
as §1

Experiment [14] deals with RMG-I (Ovarian Carcinoma). The experiment is described as above. In a few lines: as §1
The subject of experiment [15] is RPMI-8866 (Chronic Myelogenous Leukemia). The description is as above. In a few lines:
as §1

The next experiment concerns RT4 (Bladder Carcinoma). Described as above. In a few lines: as §1
Experiment [16] deals with SJRH30 (Rhabdomyosarcoma). The description is as above. In a few lines:
as §1

The test system of experiment [17] is SW684 (Other Solid Carcinomas). Described as above. Summed up: as §1

As to `NC1(C(=O)N[C@@H](CCO)c2ccc(Cl)cc2)CCN(c2ncnc3[nH]ccc23)CC1` [Capivasertib] + C[C@@H]1COCCN1C2=NC(=NC(=C2)C3(CC3)[S@](=N)(=O)C)C4=C5C=CNC5=NC=C4 [AZD6738] (first compound max 10 µM, 7x7, partner max 10 µM), the results for the Bliss excess in experiment [1] and in experiment [2] were -0.0579 and -0.017, respectively. In addition, the “combination Emax” value was 0.329 in experiment [3]; 0.747 in experiment [4]; 0.988 in experiment [5]; 0.592 in the experiment with HuO-3N1 (Osteosarcoma); 0.377 in experiment [6]; 0.941 in experiment [7]. Moreover, the “combination Emax” value in [8] came out at 0.816; in experiment [9], 0.614; in experiment [10], 0.628; in [11], 0.474; in experiment [12], 0.854; in experiment [13], 0.886. Besides, the “combination Emax” value in [14] is 0.385; in experiment [15], 0.911; in the experiment with RT4 (Bladder Carcinoma) it was 0.577; in experiment [16], 0.89; in experiment [17] it was 0.587.

For `COc1nnc2ccc(N3CCC(c4ccc(OCCN5CCN(C)C(=O)[C@H]5C)cc4)CC3)nn12` [AZD5153] + C=CCn1c(=O)c2cnc(Nc3ccc(N4CCN(C)CC4)cc3)nc2n1-c1cccc(C(C)(C)O)n1 [AZD1775] (first compound max 1 µM, partner max 1 µM), the Bliss excess was -0.114 in [1] and -0.0106 in experiment [2]. The “combination Emax” value in [3] was 0.381; in experiment [4] it was 0.384; in experiment [5] it was 0.945; with HuO-3N1 (Osteosarcoma), 0.466; in experiment [6], 0.47; in experiment [7], 0.978. The “combination Emax” value in experiment [8] was 0.814; in experiment [9] it was 0.378; in experiment [10], 0.622; in experiment [11], 0.645; in experiment [12] it was 0.883; in experiment [13], 0.621. The “combination Emax” value came to 0.592 in [14]; 0.952 in [15]; 0.571 with RT4 (Bladder Carcinoma); 0.942 in experiment [16]; 0.452 in experiment [17].

As for `COc1nnc2ccc(N3CCC(c4ccc(OCCN5CCN(C)C(=O)[C@H]5C)cc4)CC3)nn12` [AZD5153] + Cn1cnc2c(F)c(Nc3ccc(Br)cc3Cl)c(C(=O)NOCCO)cc21 [Selumetinib] (first compound max 1 µM, 7x7, partner max 10 µM), the Bliss excess is -0.0591 in [1] and 0.0945 in [2]. The “combination Emax” value is 0.595 in [3]; 0.388 in [4]; 0.452 in [5]; 0.356 in the experiment with HuO-3N1 (Osteosarcoma); 0.424 in experiment [6]; 1 in experiment [7]. In addition, the “combination Emax” value amounted to 0.686 in experiment [8]; 0.817 in experiment [9]; 0.471 in [10]; 0.866 in experiment [11]; 0.589 in experiment [12]; 0.66 in [13]. The “combination Emax” value in experiment [14] was 0.571; in [15], 0.805; in the experiment on RT4 (Bladder Carcinoma) it was 0.686; in experiment [16] it was 0.486; in experiment [17] it was 0.531.

Turning to `CC(=O)c1c(C)c2cnc(Nc3ccc(N4CCNCC4)cn3)nc2n(C2CCCC2)c1=O` [Palbociclib] + CC1(C)CCC(CN2CCN(c3ccc(C(=O)NS(=O)(=O)c4ccc(NCC5CCOCC5)c([N+](=O)[O-])c4)c(Oc4cnc5[nH]ccc5c4)c3)CC2)=C(c2ccc(Cl)cc2)C1 [Venetoclax] (first compound max 10 µM, 7x7, partner max 1 µM), the Bliss excess in experiment [1] is -0.0455; in experiment [2], 0.0436. Besides, the “combination Emax” value was 0.104 in experiment [3]; 0.249 in experiment [4]; 0.932 in [5]; 0.146 in the experiment on HuO-3N1 (Osteosarcoma); 0.11 in [6]; 0.496 in experiment [7]. Moreover, the “combination Emax” value in experiment [8] worked out at 0.241; in [9], 0.0192; in experiment [10] it was 0.336; in [11] it was 0.148; in experiment [12], 0.204; in experiment [13] it was 0.226. Moreover, the “combination Emax” value in experiment [14] stood at 0.277; in experiment [15], 0.754; in the experiment on RT4 (Bladder Carcinoma) it was 0.203; in experiment [16], 0.0832; in experiment [17], 0.147.

Consider `COc1nnc2ccc(N3CCC(c4ccc(OCCN5CCN(C)C(=O)[C@H]5C)cc4)CC3)nn12` [AZD5153] + CCN(CCO)CCCOc1ccc2c(Nc3cc(CC(=O)Nc4cccc(F)c4)[nH]n3)ncnc2c1 [AZD2811] (first compound max 1 µM, 7x7, partner max 1 µM), for which the Bliss excess in [1] was -0.0701; in [2] it was -0.0282. Also, the “combination Emax” value was determined as 0.258 in experiment [3]; 0.423 in experiment [4]; 0.684 in experiment [5]; 0.421 with HuO-3N1 (Osteosarcoma); 0.458 in [6]; 0.892 in experiment [7]. The “combination Emax” value in [8] came to 0.726; in [9] it was 0.352; in [10], 0.539; in experiment [11], 0.592; in [12] it was 0.5; in experiment [13], 0.524. The “combination Emax” value in experiment [14] came out at 0.546; in experiment [15] it was 0.872; in the experiment on RT4 (Bladder Carcinoma), 0.516; in [16] it was 0.799; in [17], 0.502.

Regarding `Cn1cnc2c(F)c(Nc3ccc(Br)cc3Cl)c(C(=O)NOCCO)cc21` [Selumetinib] + CC(C)n1c(=O)n(C)c2cnc3cc(F)c(-c4ccc(OCCCN5CCCCC5)nc4)cc3c21 [AZD1390] (first compound max 10 µM, 7x7, partner max 0.3 µM), the Bliss excess in experiment [1] was -0.0806; in experiment [2] it was -0.0198. Also, the “combination Emax” value in experiment [3] stood at 0.357; in experiment [4] it was 0.235; in experiment [5] it was 0.628; in the experiment on HuO-3N1 (Osteosarcoma), 0.129; in experiment [6], 0.168; in experiment [7], 0.926. The “combination Emax” value in experiment [8] was determined as 0.23; in experiment [9], 0.598; in experiment [10], 0.185; in experiment [11] it was 0.414; in experiment [12] it was 0.326; in experiment [13], 0.372. Also, the “combination Emax” value in experiment [14] was determined as 0.362; in [15], 0.193; with RT4 (Bladder Carcinoma) it was 0.257; in [16], 0.0759; in [17], 0.152.

On to `C[C@@H](c1ccc2nccn2c1)n1nnc2ncc(-c3cnn(C)c3)nc21` [Savolitinib] + CC1(C)CCC(CN2CCN(c3ccc(C(=O)NS(=O)(=O)c4ccc(NCC5CCOCC5)c([N+](=O)[O-])c4)c(Oc4cnc5[nH]ccc5c4)c3)CC2)=C(c2ccc(Cl)cc2)C1 [Venetoclax] (first compound max 1 µM, 7x7, partner max 1 µM), for which the results for the Bliss excess in [1] and in experiment [2] were -0.0614 and -0.031, respectively. In addition, the “combination Emax” value worked out at 0.107 in experiment [3]; 0.344 in experiment [4]; 0.279 in [5]; 0.181 in the experiment with HuO-3N1 (Osteosarcoma); 0.095 in experiment [6]; 0.172 in experiment [7]. Moreover, the “combination Emax” value in [8] was 0.149; in experiment [9], 0.133; in [10], 0.199; in [11], 0.157; in experiment [12], 0.177; in [13], 0.085. Further, the “combination Emax” value was 0.208 in experiment [14]; 0.0738 in [15]; 0.12 in the experiment on RT4 (Bladder Carcinoma); 0.126 in [16]; 0.231 in [17].
